Tested on: Plasmodium falciparum
Assay: Antimalarial activity against asexual blood stage of Plasmodium falciparum 3D7 infected in human erythrocytes assessed as inhibition of parasite growth and propagation incubated for 72 hrs by SYBR green dye based fluorescence assay
Assay type: functional, organism-based
Conditions: 3D7, Erythrocyte

Cc1cc(Cl)cc(C(=O)Nc2cccc([C@]3(C)CC(=O)N([C@@H]4CCO[C@H](C)C4)C(=N)N3)c2Cl)c1
IC50: 9 nM

C[C@@H]1C[C@H](N2C(=N)N[C@](C)(c3cccc(NC(=O)c4cccc(Cl)c4)c3Cl)CC2=O)CCO1
IC50: 9 nM

C[C@@H]1C[C@H](N2C(=N)N[C@](C)(c3cccc(NC(=O)c4cc(Cl)cc(C#N)c4)c3Cl)CC2=O)CCO1
IC50: 7 nM

C[C@@H]1C[C@H](N2C(=N)N[C@](C)(c3cccc(NC(=O)c4cc(C#N)cn4C)c3Cl)CC2=O)CCO1
IC50: 5 nM

C[C@@H]1C[C@H](N2C(=N)N[C@](C)(c3cccc(NC(=O)c4cccc(C#N)c4F)c3Cl)CC2=O)CCO1
IC50: 6 nM

C[C@@H]1C[C@H](N2C(=N)N[C@](C)(c3cccc(NC(=O)c4cccc(C#N)c4)c3Cl)CC2=O)CCO1
IC50: 8 nM

— ChEMBL document CHEMBL4706734, “Novel Hexahydropyrimidine Compounds for Treating Malaria” (ACS Med Chem Lett, 2021)
